Reference: patent publication US12049450B2, “Pyridyloxy-carboxylate derivative and preparation method therefor, herbicidal composition, and use” (Qingdao Kingagroot Chemical Compound Co., Ltd., priority 2018, dated 2024)

Legend:
Experiment in all cases: Post-emergence test experiment (greenhouse pot, spray at 2-3 leaf stage)
Format in all cases: in vivo
Settings in all cases: 1000 g/ha; post-emergence spray at 2-3 leaf stage; assessed after 3 weeks; fresh weight inhibition rate
Abutilon theophrasti = tested on: Abutilon theophrasti
Source text: (§1) The activity level standard of harmful plants destruction (i. e. growth inhibition rate) is as follows: • Level 5: the growth inhibition rate is greater than 85%; • Level 4: the growth inhibition rate is equal to or greater than 60% and less than 85%; • Level 3: the growth inhibition rate is equal to or greater than 40% and less than 60%; • Level 2: the growth inhibition rate is equal to or greater than 20% and less than 40%; • Level 1: the growth inhibition rate is equal to or greater than 5% and less than 20%; • Level 0: the growth inhibition rate is less than 5%;
(§2) The above described growth inhibition rate is fresh weight inhibition rate.
(§3) Post-emergence test experiment: Monocotyledonous and dicotyledonous weed seeds and main crop seeds (i. e. wheat, corn, rice, soybean, cotton, oilseed, millet and sorghum.) were put into a plastic pot loaded with soil. Then covered with 0.5-2 cm soil, the seeds were allowed to grow in good greenhouse environment. The test plants were treated at 2-3 leaf stage 2 weeks after sowing. The test compounds of the invention were dissolved with acetone respectively, then added with tween-80, and using 1.5 liters per hectare of an emulsible concentrate of methyl oleate as a synergist, and diluted by certain amount of water to certain concentration. The solution was sprayed to the plants with a sprayer. Then the plants were cultured for 3 weeks in the greenhouse, and the experiment result of weed controlling effect after 3 weeks was listed in tables 3-4.

Galium spurium = tested on: Galium spurium
Source text: as §1, §2, §3

Monochoria vaginalis = tested on: Monochoria vaginalis
Source text: as §1, §2, §3

SMILES | Activity level (growth inhibition rate) Abutilon theophrasti (Abutilon theophrasti) | Activity level (growth inhibition rate) Galium spurium (Galium spurium) | Activity level (growth inhibition rate) Monochoria Vaginalis (Monochoria vaginalis)
Nc1c(Cl)c(F)nc(OC(C(=O)SCc2ccccc2)c2ccoc2)c1Cl (stereo not drawn) [Compound 55] | 5 (Level 5: the growth inhibition rate is greater than 85%) | 5 (Level 5: the growth inhibition rate is greater than 85%) | 5 (Level 5: the growth inhibition rate is greater than 85%)
Cc1nn(C)cc1C(Oc1nc(F)c(Cl)c(N)c1Cl)C(=O)SCc1ccccc1 (stereo not drawn) [Compound 58] | 5 (Level 5: the growth inhibition rate is greater than 85%) | 5 (Level 5: the growth inhibition rate is greater than 85%) | 5 (Level 5: the growth inhibition rate is greater than 85%)
CCCC(Oc1nc(F)c(Cl)c(N)c1Cl)C(=O)SCc1ccccc1 (stereo not drawn) [Compound 26] | 5 (Level 5: the growth inhibition rate is greater than 85%) | 5 (Level 5: the growth inhibition rate is greater than 85%) | 5 (Level 5: the growth inhibition rate is greater than 85%)
Nc1c(Cl)c(F)nc(OC(C(=O)OCc2ccccc2)c2cccc(Cl)c2)c1Cl (stereo not drawn) [Compound 62] | 5 (Level 5: the growth inhibition rate is greater than 85%) | 5 (Level 5: the growth inhibition rate is greater than 85%) | 5 (Level 5: the growth inhibition rate is greater than 85%)
Nc1c(Cl)c(F)nc(OC(CCCl)C(=O)OCc2ccccc2)c1Cl (stereo not drawn) [Compound 40] | 5 (Level 5: the growth inhibition rate is greater than 85%) | 5 (Level 5: the growth inhibition rate is greater than 85%) | 5 (Level 5: the growth inhibition rate is greater than 85%)
COC(=O)C(Oc1nc(F)c(Cl)c(N)c1Cl)C(=O)OCc1ccccc1 (stereo not drawn) [Compound 52] | 5 (Level 5: the growth inhibition rate is greater than 85%) | 5 (Level 5: the growth inhibition rate is greater than 85%) | 5 (Level 5: the growth inhibition rate is greater than 85%)
Nc1c(Cl)c(F)nc(OC(F)C(=O)OCc2ccccc2)c1Cl (stereo not drawn) [Compound 34] | 5 (Level 5: the growth inhibition rate is greater than 85%) | 5 (Level 5: the growth inhibition rate is greater than 85%) | 5 (Level 5: the growth inhibition rate is greater than 85%)
Nc1c(Cl)c(F)nc(OC(C(=O)OCc2ccccc2)c2cccnc2)c1Cl (stereo not drawn) [Compound 64] | 5 (Level 5: the growth inhibition rate is greater than 85%) | 5 (Level 5: the growth inhibition rate is greater than 85%) | 5 (Level 5: the growth inhibition rate is greater than 85%)
Nc1c(Cl)c(F)nc(OC(C=O)C(=O)OCc2ccccc2)c1Cl (stereo not drawn) [Compound 51] | 5 (Level 5: the growth inhibition rate is greater than 85%) | 5 (Level 5: the growth inhibition rate is greater than 85%) | 5 (Level 5: the growth inhibition rate is greater than 85%)
Nc1c(Cl)c(F)nc(OC(C(=O)OCc2ccccc2)[N+](=O)[O-])c1Cl (stereo not drawn) [Compound 49] | 5 (Level 5: the growth inhibition rate is greater than 85%) | 5 (Level 5: the growth inhibition rate is greater than 85%) | 5 (Level 5: the growth inhibition rate is greater than 85%)
Nc1c(Cl)c(F)nc(OC(C(=O)OCc2ccccc2)C2CC2)c1Cl (stereo not drawn) [Compound 28] | 5 (Level 5: the growth inhibition rate is greater than 85%) | 5 (Level 5: the growth inhibition rate is greater than 85%) | 5 (Level 5: the growth inhibition rate is greater than 85%)
C#CC(Oc1nc(F)c(Cl)c(N)c1Cl)C(=O)SCc1ccccc1 (stereo not drawn) [Compound 33] | 5 (Level 5: the growth inhibition rate is greater than 85%) | 5 (Level 5: the growth inhibition rate is greater than 85%) | 5 (Level 5: the growth inhibition rate is greater than 85%)
CSC(Oc1nc(F)c(Cl)c(N)c1Cl)C(=O)OCc1ccccc1 (stereo not drawn) [Compound 47] | 5 (Level 5: the growth inhibition rate is greater than 85%) | 5 (Level 5: the growth inhibition rate is greater than 85%) | 5 (Level 5: the growth inhibition rate is greater than 85%)
Nc1c(Cl)c(F)nc(OC(Br)C(=O)SCc2ccccc2)c1Cl (stereo not drawn) [Compound 36] | 5 (Level 5: the growth inhibition rate is greater than 85%) | 5 (Level 5: the growth inhibition rate is greater than 85%) | 5 (Level 5: the growth inhibition rate is greater than 85%)
CCn1nccc1C(Oc1nc(F)c(Cl)c(N)c1Cl)C(=O)OCc1ccccc1 (stereo not drawn) [Compound 57] | 5 (Level 5: the growth inhibition rate is greater than 85%) | 5 (Level 5: the growth inhibition rate is greater than 85%) | 5 (Level 5: the growth inhibition rate is greater than 85%)
COCCC(Oc1nc(F)c(Cl)c(N)c1Cl)C(=O)SCc1ccccc1 (stereo not drawn) [Compound 30] | 5 (Level 5: the growth inhibition rate is greater than 85%) | 5 (Level 5: the growth inhibition rate is greater than 85%) | 5 (Level 5: the growth inhibition rate is greater than 85%)
C=CC(Oc1nc(F)c(Cl)c(N)c1Cl)C(=O)OCc1ccccc1 (stereo not drawn) [Compound 32] | 5 (Level 5: the growth inhibition rate is greater than 85%) | 5 (Level 5: the growth inhibition rate is greater than 85%) | 5 (Level 5: the growth inhibition rate is greater than 85%)
Nc1c(Cl)c(F)nc(OC(C(=O)OCc2ccccc2)c2ccccc2)c1Cl (stereo not drawn) [Compound 60] | 5 (Level 5: the growth inhibition rate is greater than 85%) | 5 (Level 5: the growth inhibition rate is greater than 85%) | 5 (Level 5: the growth inhibition rate is greater than 85%)
Nc1c(Cl)c(F)nc(OC(C(=O)SCc2ccccc2)c2cncnc2)c1Cl (stereo not drawn) [Compound 65] | 5 (Level 5: the growth inhibition rate is greater than 85%) | 5 (Level 5: the growth inhibition rate is greater than 85%) | 5 (Level 5: the growth inhibition rate is greater than 85%)
Nc1c(Cl)c(F)nc(OC(CO)C(=O)OCc2ccccc2)c1Cl (stereo not drawn) [Compound 48] | 5 (Level 5: the growth inhibition rate is greater than 85%) | 5 (Level 5: the growth inhibition rate is greater than 85%) | 5 (Level 5: the growth inhibition rate is greater than 85%)
Nc1c(Cl)c(F)nc(OC(N)C(=O)OCc2ccccc2)c1Cl (stereo not drawn) [Compound 45] | 5 (Level 5: the growth inhibition rate is greater than 85%) | 5 (Level 5: the growth inhibition rate is greater than 85%) | 5 (Level 5: the growth inhibition rate is greater than 85%)
COC(C)C(Oc1nc(F)c(Cl)c(N)c1Cl)C(=O)OCc1ccccc1 (stereo not drawn) [Compound 31] | 5 (Level 5: the growth inhibition rate is greater than 85%) | 5 (Level 5: the growth inhibition rate is greater than 85%) | 5 (Level 5: the growth inhibition rate is greater than 85%)
Nc1c(Cl)c(F)nc(OC(C(=O)SCc2ccccc2)c2ccc(C(F)(F)F)cc2)c1Cl (stereo not drawn) [Compound 61] | 5 (Level 5: the growth inhibition rate is greater than 85%) | 5 (Level 5: the growth inhibition rate is greater than 85%) | 5 (Level 5: the growth inhibition rate is greater than 85%)
Nc1c(Cl)c(F)nc(OC(C(=O)OCc2ccccc2)c2ccn(C(F)F)n2)c1Cl (stereo not drawn) [Compound 59] | 5 (Level 5: the growth inhibition rate is greater than 85%) | 5 (Level 5: the growth inhibition rate is greater than 85%) | 5 (Level 5: the growth inhibition rate is greater than 85%)
